# Reference: patent US11800867B2, “Methods of repelling biting arthropods, reducing pathogen spread and treating arthropod infestation” (priority 2016, dated 2023)
# Where “and” joins values, the source holds several entries; their conditions need not be identical. Identical values can stand only once.
# Tests used:
# [1] = tested on: cat fleas (Ctenocephalides felis); test: Filter paper choice test of repelling action (Example 6); assay type: in vivo; conditions: for Raw data: number of fleas on Treated half of treated arena, per replicate / Raw data: number of fleas on Untreated half of treated arena, per replicate: 0.5% nootkatone in ethanol, Replicates 1-5
# Procedure: An in vitro laboratory trial was required to assess the repelling action of nootkatone applied to filter paper against cat fleas (Ctenocephalides felis), deer ticks (Ixodes scapularis), bed bugs (Cimex lectularius), and termites (Reticulitermes flavipes) in a choice test design.
# The sponsor provided a sample of nootkatone (98%), which was diluted in ethanol to a 0.5% concentration. The treatment was applied to filter paper at a rate of 1 mL for a 9 cm filter paper disc, and a rate of 1.9 mL for a 15 cm filter paper disc. A negative control group, consisting of untreated filter paper, was also assessed for comparison purposes.
# Cat fleas: Treated and untreated filter papers were cut in half and fitted into the bottom of a 15 cm clear plastic cylinder. Treated replicates received one half treated and one half untreated filter paper; negative control replicates received only untreated filter paper.
# Cat fleas: Cat fleas were introduced to the untreated side of each arena, and their distribution (on or under each paper) was recorded at +1, +4, and +24 hours post-introduction.
# The number of insects in each location was converted to a percentage, for which the average and standard error were calculated across all five replicates.
# Percent repellency was calculated with the following formula: % repellency=(1−((t/T)/(c/C)))*100 • Where t=number of insects on treated side of treated arena • T=total number of insects in treated arena • c=average number of insects on right side of untreated arenas • C=average total number of insects in untreated arenas
# [2] = tested on: deer ticks (Ixodes scapularis); test: Treated filter paper knockdown (KD) and mortality trial (Example 4); assay type: in vivo; conditions: Nootkatone 1% in ethanol on filter paper
# Procedure: (§1) A laboratory trial was conducted to assess the efficacy of nootkatone applied to filter paper against aphids (Schizaphis gramium), dust mites (Dermatophagoides sp.), termites (Reticulitermes flavipes), deer ticks (Ixodes scapularis), biting midges (Culicoides sp.), fire ants (Solenopsis invicta), and mosquitoes (Aedes aegypti and Culex), in terms of knockdown (KD) and mortality. One concentration (1% in ethanol) of nootkatone was assessed for most species, but three concentrations (0.25%, 0.5%, and 1% in ethanol) were assessed for mosquitoes. A negative control group, consisting of filter paper treated with ethanol, was also assessed for comparison purposes for each species.
# (§2) Test systems were introduced to treated filter paper, allowed to dry, and then introduced into treatment chamber, where treated arthropods were monitored at intervals up to 72 hours. If 100% mortality was obtained prior to 72 hours, the individual study was halted.
# Deer Ticks and Dust mites—5 replicates of 10 ticks or 35 dust mites were tested per treatment. Envelopes made from treated 2.5 inch (6.35 cm) filter paper squares served as the containers. After the ticks or dust mites were placed inside the envelopes, and the openings were sealed using small binder clips.
# (§3) Readings were discontinued if treated mortality reaches […], or control mortality exceeds 20%.
# [3] = tested on: aphids (Schizaphis gramium); test: as above; assay type: in vivo; conditions: Nootkatone 1% in ethanol on filter paper
# Procedure: as §1, §2, §3
# [4] = tested on: Ae. aegypti mosquitoes; test: Continuous exposure to treated filter paper, knockdown and mortality (Example 3); assay type: in vivo, Aedes aegypti; conditions: 1% nootkatone in ethanol on filter paper
# Procedure: In the following example, the effectiveness of a 1% nootkatone composition in killing Ae. aegypti mosquitoes was determined.
# A composition of 1% nootkatone formulated in ethanol was added to filter paper, which was then introduced into a Fluon®-coated container. Ten Ae. aegypti mosquitoes were added to the container and observed at 30 min, 1, 4, and 24 hr. Five replicates were performed. […] An untreated population was observed as a negative control.
smiles,measurement,setting,value
"C=C(C)[C@@H]1CCC2=CC(=O)C[C@@H](C)[C@]2(C)C1 [Nootkatone, nootkatone]",Repellency (conclusion in words),[1]; 0.5% nootkatone in ethanol on filter paper,some potential repellency
same,"Raw data: number of fleas on Treated half of treated arena, per replicate",[1]; 1 Hour post introduction,3 (2×) and 8 and 6 and 4
same,"Raw data: number of fleas on Untreated half of treated arena, per replicate",[1]; 1 Hour post introduction,2 and 4 (2×) and 7 and 3
same,"Raw data: number of fleas on Treated half of treated arena, per replicate",[1]; 4 Hours post introduction,2 and 1 and 3 (2×) and 4
same,"Raw data: number of fleas on Untreated half of treated arena, per replicate",[1]; 4 Hours post introduction,9 and 7 and 6 (2×) and 4
same,"Raw data: number of fleas on Treated half of treated arena, per replicate",[1]; 24 Hours post introduction,0 and 2 and 4 and 1 (2×)
same,"Raw data: number of fleas on Untreated half of treated arena, per replicate",[1]; 24 Hours post introduction,8 (2×) and 6 (2×) and 9
same,Calculated percent repellency (average ± SE),"[1]; nootkatone (98%) 0.5% in ethanol on filter paper, half treated, half untreated arena",61.9 ± 15.0%
same,Time required for greater than 90% killing,[2],72 h
same,Means Affected,[2]; 24 hours post introduction,100.0%
same,Means Dead,[2]; 24 hours post introduction,36.0%
same,Means KD,[2]; 24 hours post introduction,62.0%
same,Means Affected,[2]; 48 hours post introduction,100.0%
same,Means Dead,[2]; 48 hours post introduction,82.0%
same,Means KD,[2]; 48 hours post introduction,16.0%
same,Means Affected,[2]; 72 hours post introduction,100.0%
same,Means Dead,[2]; 72 hours post introduction,100% and 98%
same,Means KD,[2]; 72 hours post introduction,0.0%
same,Time required for greater than 90% killing,[3],30 min
same,Means Affected,[3]; 30 minutes post introduction,100.0%
same,Means Dead,[3]; 30 minutes post introduction,100% and 94.0%
same,Means KD,[3]; 30 minutes post introduction,6.0%
same,Knockdown rate after 1 hr relative to 30 min,[4]; after 1 hr,more than doubled
same,Knockdown rate,[4]; after 4 hr,greater than 90%
same,Exposure time after which mosquitoes begin to be affected,[4]; continuous exposure,30 min
same,Exposure time at which knockdown was complete (FIG. 5),[4]; continuous exposure,< 24 h
same,Average percent of mosquitoes affected (FIG. 3),[4]; continuous exposure 24 hr,All mosquitoes were affected
